These compounds were tested on C3H10T1/2 cells (assay: C3H assay: differentiation of C3H10T1/2 cells by mSHH, measurement of alkaline phosphatase). Settings: Mus musculus, C3H 10T1/2; C3H10T1/2 cells stimulated with mSHH for 72 hours; alkaline phosphatase activity; read-out: IC50 Ranges.
Assay type: cell-based, mouse

Compound	IC50 [µM]
Cc1cc(F)ccc1N(C)C(=O)N1CC(S(=O)(=O)N2CCC(c3coc4cccnc34)CC2)C1 [Compound 399, N-(4-fluoro-2-methyl-phenyl)-3-[(4-furo[3,2-b]pyridin-3-yl-1-piperidyl)sulfonyl]-N-methyl-azetidine-1-carboxamide]	0.1 to 1
O=C(NC1(C(F)(F)F)CC1)N1CC(S(=O)(=O)N2CCC(c3ccc(Cl)cc3)CC2)C1 [Compound 341, 3-[4-(4-chlorophenyl)piperidin-1-yl]sulfonyl-N-[1-(trifluoromethyl)cyclopropyl] azetidine-1-carboxamide]	0.01 to 0.1
O=S(=O)(C1CCN(c2ccccc2)CC1)N1CCC(c2ccncc2)CC1 [Compound 113, 4-[1-[(1-Phenyl-4-piperidyl)sulfonyl]-4-piperidyl]pyridine]	1 to 10
CCOC(=O)c1coc(N2CC(S(=O)(=O)N3CCC(c4ccncc4)CC3)C2)n1 [Compound 260, ethyl 2-[3-(4-pyridin-4-ylpiperidin-1-yl)sulfonylaze-tidin-1-yl]-1,3-oxazole-4-carboxylate]	1 to 10
CC(C)(C)OC(=O)N1CCC(S(=O)(=O)N2CCC(c3csc4cccnc34)CC2)CC1 [Compound 18, tert-butyl 4-(4-thieno[3,2-b]pyridin-3-ylpiperidin-1-yl)sulfonylpiper-idine-1-carboxylate]	0.01 to 0.1
Cc1ccccc1C1CCN(S(=O)(=O)C2CN(C(=O)OC(C)(C)C)C2)CC1 [Compound 409, tert-butyl 3-[4-(2-methylphenyl)piperidin-1-yl]sulfonylaze-tidine-1-carboxylate]	1 to 10
CC(C)N(CC(=O)N1CC(S(=O)(=O)N2CCC(c3ccccc3)CC2)C1)C(C)C [Compound 306, 2-[di(propan-2-yl)amino]-1-[3-(4-phenylpiperidin-1-yl)sulfonylaze-tidin-1-yl]ethanone]	0.1 to 1
O=C(OCCN1CCCCC1)N1CC(S(=O)(=O)N2CCC(c3c[nH]c4ncccc34)CC2)C1 [Compound 59, 2-piperidin-1-ylethyl 3-[4-(1H-pyrrolo [2,3-b]pyridin-3-yl)piperidin-1-yl]sulfonylaze-tidine-1-carboxylate]	0.01 to 0.1

Other lines, results leading:

IC50 [µM]	Compound
0.01 to 0.1	N#Cc1ccc(NC(=O)N2CC(S(=O)(=O)N3CCC(c4c[nH]c5ncccc45)CC3)C2)cc1 [Compound 335, N-(4-cyanophenyl)-3-[4-(1H-pyrrolo [2,3-b]pyridin-3-yl)piperidin-1-yl]sulfonylaze-tidine-1-carboxamide]
0.01 to 0.1	Cc1cccc(C)c1NC(=O)N1CC(S(=O)(=O)N2CCC(c3c[nH]c4ncccc34)CC2)C1 [Compound 391, N-(2,6-dimethylphenyl)-3-[4-(1H-pyrrolo[2,3-b]pyridin-3-yl)piperidin-1-yl]sulfonylaze-tidine-1-carboxamide]
< 0.01	CCN(C(=O)N1CC(S(=O)(=O)N2CCC(c3c[nH]c4ncccc34)CC2)C1)C(C)(C)C [Compound 156, N-tert-butyl-N-ethyl-3-[4-(1H-pyrrolo[2,3-b]pyridin-3-yl)piperidin-1-yl]sulfonylaze-tidine-1-carboxamide]
1 to 10	CC1(CN2CC(S(=O)(=O)N3CCC(c4c[nH]c5ncccc45)CC3)C2)COC1 [Compound 159, 3-[1-[1-[(3-methyloxetan-3-yl)methyl]azetidin-3-yl]-sulfonylpiper-idin-4-yl]-1H-pyrrolo[2,3-b]pyridine]
0.01 to 0.1	CN(C)CC(C)(C)OC(=O)N1CCC(S(=O)(=O)N2CCC(c3c[nH]c4ncccc34)CC2)C1 (racemic) [Compound 147, [1-(dimethylamino)-2-methylpropan-2-yl]3-[4-(1H-pyrrolo[2,3-b]pyridin-3-yl)piperidin-1-yl]sulfonylpyrr olidine-1-carboxylate]
0.1 to 1	O=S(=O)(C1CCN(c2ccccn2)C1)N1CCC(c2c[nH]c3ncccc23)CC1 (racemic) [Compound 244, 3-[1-(1-pyridin-2-ylpyrrolidin-3-yl)sulfonylpiper-idin-4-yl]-1H-pyrrolo[2,3-b]pyridine]
